Source: the supplement of paper PMC10307832

Legend:
Assay in all cases: relative viability (nuclei count vs DMSO), 5 days (fraction); higher = more cells survive
Decitabine + Tozasertib = compound: Nc1ncn([C@H]2C[C@H](O)[C@@H](CO)O2)c(=O)n1 [Decitabine] + Cc1cc(Nc2cc(N3CCN(C)CC3)nc(Sc3ccc(NC(=O)C4CC4)cc3)n2)n[nH]1 [Tozasertib] (partner 0.1 µM)
Method in brief: (§1)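 Nuclei were stained with Hoechst during a one-step fixation (final 0.05% Triton X-100, 1% formaldehyde, 1 ug/ml Hoechst) carried out 5 days after dosing, then counted on 4× images. The cells, lung cancer lines in 1536-well plates, had been dosed by pin tool the day after seeding with one drug alone or a fixed anchor-drug dose plus five library-drug doses (not always all listed) in √10 steps. Relative viability is the nuclei count in treated wells divided by that in vehicle wells, and each value is the median of duplicate plates.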

Halofuginone + Alpelisib = compound: O=C(C[C@H]1NCCC[C@@H]1O)Cn1cnc2cc(Br)c(Cl)cc2c1=O (racemic) [Halofuginone] + Cc1nc(NC(=O)N2CCC[C@H]2C(N)=O)sc1-c1ccnc(C(C)(C)C(F)(F)F)c1 [Alpelisib] (partner 2 µM)
Method in brief: as §1

[1] = compound: O=C(C[C@H]1NCCC[C@@H]1O)Cn1cnc2cc(Br)c(Cl)cc2c1=O (racemic) [Halofuginone] + CC(=O)Nc1cccc(-n2c(=O)n(C3CC3)c(=O)c3c(Nc4ccc(I)cc4F)n(C)c(=O)c(C)c32)c1 [Trametinib] (partner 0.02 µM)
Method in brief: as §1

[2] = compound: O=C(C[C@H]1NCCC[C@@H]1O)Cn1cnc2cc(Br)c(Cl)cc2c1=O (racemic) [Halofuginone] + CC1(C)CCC(c2ccc(Cl)cc2)=C(CN2CCN(c3ccc(C(=O)NS(=O)(=O)c4ccc(N[C@H](CCN5CCOCC5)CSc5ccccc5)c(S(=O)(=O)C(F)(F)F)c4)cc3)CC2)C1 [Navitoclax] (partner 0.5 µM)
Method in brief: as §1

| Cell Line | relative viability (Decitabine + Tozasertib; first compound 0.04 µM) | relative viability (Decitabine + Tozasertib; first compound 0.1265 µM) | relative viability (Decitabine + Tozasertib; first compound 0.4 µM) | relative viability (Decitabine + Tozasertib; first compound 1.265 µM) | relative viability (Decitabine + Tozasertib; first compound 4 µM) | relative viability (Halofuginone + Alpelisib; first compound 0.001 µM) | relative viability (Halofuginone + Alpelisib; first compound 0.003162 µM) | relative viability (Halofuginone + Alpelisib; first compound 0.01 µM) | relative viability (Halofuginone + Alpelisib; first compound 0.03162 µM) | relative viability (Halofuginone + Alpelisib; first compound 0.1 µM) | relative viability ([1]; first compound 0.001 µM) | relative viability ([1]; first compound 0.003162 µM) | relative viability ([1]; first compound 0.01 µM) | relative viability ([1]; first compound 0.03162 µM) | relative viability ([1]; first compound 0.1 µM) | relative viability ([2]; first compound 0.001 µM) | relative viability ([2]; first compound 0.003162 µM) | relative viability ([2]; first compound 0.01 µM) | relative viability ([2]; first compound 0.03162 µM) | relative viability ([2]; first compound 0.1 µM) |
| --- | --- | --- | --- | --- | --- | --- | --- | --- | --- | --- | --- | --- | --- | --- | --- | --- | --- | --- | --- | --- |
| NCI-H2085 | 0.666 | 0.669 | 0.54 | 0.454 | 0.437 | 0.901 | 0.98 | 0.943 | 0.873 | 0.623 | 0.541 | 0.512 | 0.525 | 0.585 | 0.349 | 1.1 | 1.25 | 1.03 | 1.02 | 0.74 |
| NCI-H3122 | 0.328 | 0.369 | 0.118 | – | 0.246 | 0.79 | 0.801 | 0.638 | 0.76 | 0.781 | 0.192 | 0.241 | 0.258 | 0.219 | 0.25 | 0.994 | 1.02 | 0.966 | 1.01 | 1.05 |
| NCI-H1651 | 0.521 | 0.718 | 0.6 | 0.378 | 0.371 | 0.906 | 0.9 | 0.889 | 0.66 | 0.278 | 0.8 | 0.853 | 0.804 | 0.819 | 0.806 | 1.04 | 1.15 | 1.12 | 0.761 | 0.267 |
| NCI-H441 | 0.296 | 0.269 | 0.208 | 0.234 | 0.317 | 0.602 | 0.605 | 0.623 | 0.664 | 0.262 | 0.48 | 0.428 | 0.493 | 0.471 | 0.233 | 0.607 | 0.674 | 0.562 | 0.586 | 0.34 |
| NCI-H2126 | 0.648 | 0.606 | 0.425 | 0.451 | 0.399 | 0.71 | 0.74 | 0.696 | 0.734 | 0.698 | 0.525 | 0.544 | 0.585 | 0.546 | 0.513 | 0.87 | 0.822 | 0.824 | 0.824 | 0.831 |
| RERF-LC-KJ | 0.511 | 0.446 | – | 0.309 | 0.379 | 0.849 | 1.09 | 0.735 | 0.908 | 0.831 | 0.924 | 0.984 | 0.837 | 0.824 | 0.591 | 0.987 | 1.11 | 1.05 | 0.905 | 0.699 |
| NCI-H1666 | 0.514 | 0.577 | 0.615 | 0.502 | 0.517 | 0.936 | 0.791 | 0.857 | 0.92 | 0.607 | 0.944 | 0.852 | 0.79 | 0.865 | 0.68 | 1.1 | 0.885 | 0.962 | 1.01 | 0.419 |
| PC-14 | 0.25 | 0.182 | 0.0787 | 0.0922 | 0.0951 | 0.985 | 1.01 | 0.878 | 0.724 | 0.428 | 0.809 | 0.618 | 0.702 | 0.154 | 0.0395 | 1.07 | 0.941 | 0.963 | 0.572 | 0.154 |
| NCI-H1915 | 0.274 | 0.224 | 0.174 | 0.175 | 0.189 | 1.08 | 1.11 | 1.05 | 0.921 | 0.929 | 0.319 | 0.291 | 0.28 | 0.297 | 0.262 | 0.776 | 0.785 | 0.8 | 0.756 | 0.771 |
| SK-MES-1 | 0.698 | 0.608 | 0.332 | 0.238 | 0.255 | 0.952 | 1.32 | 0.853 | 0.832 | 0.522 | 0.554 | 0.53 | 0.511 | 0.499 | 0.232 | 1.22 | 1.16 | 1.18 | 0.67 | 0.197 |
| NCI-H1944 | 0.234 | 0.268 | 0.22 | 0.201 | 0.186 | 0.829 | 0.85 | 0.827 | 0.839 | 0.68 | 0.394 | 0.437 | 0.417 | 0.43 | 0.355 | 1.04 | 1.06 | 1.02 | 1.05 | 1.01 |
| HCC-78 | 0.443 | 0.488 | 0.369 | 0.38 | 0.291 | 0.409 | 0.327 | 0.299 | 0.374 | 0.215 | 0.775 | 0.718 | 0.709 | 0.766 | 0.503 | 0.75 | 0.758 | 0.725 | 0.817 | 0.435 |
| PC-3 [JPC-3] | 0.593 | 0.59 | 0.459 | 0.448 | 0.404 | 1.09 | 1.03 | 0.95 | 1.01 | 0.92 | 0.722 | 0.741 | 0.664 | 0.648 | 0.538 | 0.8 | 0.792 | 0.805 | 0.768 | 0.73 |
| EKVX | 0.283 | 0.266 | 0.247 | 0.166 | 0.148 | 1.01 | 0.922 | 0.862 | 0.859 | 0.638 | 0.383 | 0.358 | 0.339 | 0.37 | 0.314 | 1.06 | 0.971 | 0.984 | 0.905 | 0.797 |
| NCI-H460 | 0.325 | 0.24 | 0.27 | 0.0551 | 0.0621 | 0.62 | 0.495 | 0.464 | 0.214 | 0.0177 | 0.115 | 0.197 | 0.172 | 0.0823 | 0.022 | 1.2 | 1.3 | 1.12 | 0.232 | 0.0111 |
